According to patent publication US11912693B2, “Compounds for modulating S1P1 activity and methods of using the same” (TREVENA, INC., priority 2017, dated 2024):

Key:
[1] = target: T1, human sphingosine-1-phosphate receptor 1 (S1P1) (Homo sapiens (Human), UniProt P21453); experiment: Inhibition of cAMP production (HTRF cAMP HiRange), S1P1 CHO-K1 cells; type: cell-based; settings: for hS1P1 cAMP pEC50: inhibition of cAMP production, S1P1 CHO-K1 cells; for Emax: CHO-K1, efficacy (SPAN) normalized to fingolimod, read-out: hS1P1 cAMP SPAN
Experimental: (§1) Stable clonal Chinese hamster ovary K1 (CHO-K1) cells co-expressing EA-β-arrestin2 and the human sphingosine-1-phosphate receptor 1 (NM_001400, S1P1) with a C-terminal Prolink™ tag were purchased from DiscoverX corporation (Cat #: 93-0207C2).
(§2) Cell lines were cultured in AssayComplete™ Media 6 (DiscoverX Corporation, Cat #: 920018GF2) at 37° C. and 5% CO2 in a humidified CO2 and temperature-controlled incubator. To begin assay plating, cells were washed with dulbecco's phosphate buffered saline (CellGro, Cat #: 21-031-CV) and lifted from the culturing flask by incubation (37° C., 5 min) with CellStripper (Cellgro, Cat #: 25-056-CI). […] Plated cells were incubated overnight at 37° C. and 5% CO2 in a humidified CO2 and temperature-controlled incubator. Detecting Inhibition of cAMP Production
Agonist-promoted G-protein responses were determined by measuring changes in intracellular cAMP using the HTRF® cAMP HiRange kit (CisBio, Cat #: 62AM6PEJ) based on time-resolved fluorescence resonance energy transfer (TR-FRET) technology. […] Following a 30-minute incubation at 37° C. and 5% CO2 in a humidified CO2 and temperature-controlled incubator, the components of the cAMP HiRange kit were added as per the manufacturer's instructions. After an hour incubation at room temperature, plates were analyzed by a BMG PheraStar microplate reader.
(§3) The tables below include the efficacy of the compound as compared to a positive control, referred to as “SPAN”. These values are normalized to fingolimod, a known agonist of the sphingosine-1-phosphate 1 receptor. The tables also include potency values (pEC50) for modulating discrete receptor-mediated activities (inhibition of cAMP production and […] recruitment).
Target sequence in this assay (P21453 whole entry, looked up): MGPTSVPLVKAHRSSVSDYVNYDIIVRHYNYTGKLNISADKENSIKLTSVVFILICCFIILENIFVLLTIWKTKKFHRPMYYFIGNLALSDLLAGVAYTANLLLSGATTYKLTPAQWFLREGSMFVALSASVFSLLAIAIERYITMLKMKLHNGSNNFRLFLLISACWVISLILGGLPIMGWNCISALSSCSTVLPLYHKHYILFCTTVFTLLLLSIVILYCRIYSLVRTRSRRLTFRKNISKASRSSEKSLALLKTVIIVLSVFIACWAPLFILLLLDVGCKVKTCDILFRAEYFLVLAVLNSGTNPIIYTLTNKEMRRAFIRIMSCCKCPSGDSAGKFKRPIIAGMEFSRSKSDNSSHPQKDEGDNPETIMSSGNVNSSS

[2] = target: T1, human sphingosine-1-phosphate receptor 1 (S1P1); experiment: β-Arrestin2 recruitment assay (PathHunter), S1P1 CHO-K1 cells; type: cell-based; settings: for hS1P1 B-arrestin2 pEC50: β-arrestin2 recruitment, S1P1 CHO-K1 cells; for Emax: CHO-K1, efficacy (SPAN) normalized to fingolimod, read-out: hS1P1 B-arrestin2 SPAN
Experimental: as §1, §2
Target sequence in this assay (P21453 whole entry, looked up): as above
Target sequence in this assay (P32121 whole entry partner, looked up): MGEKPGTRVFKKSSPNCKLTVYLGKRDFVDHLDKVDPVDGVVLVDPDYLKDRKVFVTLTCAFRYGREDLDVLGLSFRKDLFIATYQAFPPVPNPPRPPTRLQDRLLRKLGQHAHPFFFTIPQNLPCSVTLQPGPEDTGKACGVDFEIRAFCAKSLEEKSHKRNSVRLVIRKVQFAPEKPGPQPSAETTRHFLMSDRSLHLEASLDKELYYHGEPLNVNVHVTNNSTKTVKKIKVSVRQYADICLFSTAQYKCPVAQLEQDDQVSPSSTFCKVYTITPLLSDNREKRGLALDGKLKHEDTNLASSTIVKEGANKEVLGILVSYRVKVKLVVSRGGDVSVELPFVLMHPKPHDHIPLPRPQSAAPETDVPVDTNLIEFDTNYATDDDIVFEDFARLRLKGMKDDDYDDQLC
Agonist-promoted β-arrestin2 recruitment to the sphingosine-1-phosphate 1 receptor was determined using the β-arrestin PathHunter®) Detection kit (DiscoverX Corporation, Cat #: 93-0001). […] In cells that stably express these fusion proteins, stimulation with a cognate agonist results in the interaction of […] and the Prolink™-tagged GPCR. This allows the complementation of the two β-galactosidase fragments and results in the formation of a functional enzyme with β-galactosidase activity. […] Following a 60 minute incubation at 37° C. and 5% CO2 in a humidified CO2 and temperature-controlled incubator, the components of the β-arrestin PathHunter® Detection kit were added as per the manufacturer's instructions. After an hour incubation at room temperature, plates were analyzed by a BMG PheraStar microplate reader.
as §3

Row | SMILES | hS1P1 cAMP pEC50 [1] | hS1P1 B-arrestin2 pEC50 [2] | Emax [1] [%] | Emax [2] [%]
1 | CCC1(CC)CC(=O)c2cc(-c3nc(-c4ccc(S(=O)(=O)N(C)C)cc4)no3)ccc2O1 [Compound 30, 4-(5-(2,2-diethyl-4-oxochroman-6-yl)-1,2,4-oxadiazol-3-yl)-N,N-dimethylbenzenesulfonamide] | <6.5 | <5 |  | 
2 | CCC1(CC)CC(=O)c2cc(-c3nc(-c4ccncc4C)no3)ccc2O1 [Compound 31, 2,2-diethyl-6-(3-(3-methylpyridin-4-yl)-1,2,4-oxadiazol-5-yl)chroman-4-one] | >6.5 | >5 | > 75 | > 75
3 | CCC1(CC)CC(=O)c2cc(-c3nc(-c4ccc(C)s4)no3)ccc2O1 [Compound 34, 2,2-diethyl-6-(3-(5-methylthiophen-2-yl)-1,2,4-oxadiazol-5-yl)chroman-4-one] | <6.5 | >5 |  | 
4 | COc1ccccc1-c1nnc(-c2ccc3c(c2)nnn3C(C)C)o1 [Compound 35, 5-[5-(2-methoxyphenyl)-1,3,4-oxadiazol-2-yl]-1-(propan-2-yl)-1H-1,2,3-benzotriazole] | <6.5 | <5 |  | 
5 | O=C1CC2(CCC(F)(F)CC2)Oc2ccc(-c3nc(-c4cccnc4)no3)cc21 [Compound 36, 4′,4′-difluoro-6-[3-(pyridin-3-yl)-1,2,4-oxadiazol-5-yl]-3,4-dihydrospiro[1-benzopyran-2,1′-cyclohexane]-4-one] | <6.5 | <5 | < 75 | < 75
6 | CCC1(CC)CC(=O)c2cc(-c3nc(-c4ccnc(OC)c4)no3)ccc2O1 [Compound 38, 2,2-diethyl-6-(3-(2-methoxypyridin-4-yl)-1,2,4-oxadiazol-5-yl)chroman-4-one] | <6.5 | <5 | < 75 | > 75
7 | C=CCn1nc2ccc(-c3nc(-c4ccccc4)no3)cc2n1 [Compound 39, 5-(3-phenyl-1,2,4-oxadiazol-5-yl)-2-(prop-2-en-1-yl)-2H-1,2,3-benzotriazole] | <6.5 | <5 |  | 
8 | C=CCn1nnc2cc(-c3noc(-c4ccccc4Br)n3)ccc21 [Compound 42, 3-(1-allyl-1H-benzo[d][1,2,3]triazol-5-yl)-5-(2-bromophenyl)-1,2,4-oxadiazole] | <6.5 | <5 |  | 
9 | Brc1ccccc1-c1nc(-c2ccc3c(c2)nnn3Cc2ccccn2)no1 [Compound 45, 5-(2-bromophenyl)-3-(1-(pyridin-2-ylmethyl)-1H-benzo[d][1,2,3]triazol-5-yl)-1,2,4-oxadiazole] | <6.5 | <5 |  | 
10 | Cc1oc(-c2ccc3c(c2)nnn3C(C)C)nc1-c1ccc(Cl)cc1 [Compound 50, 5-[4-(4-chlorophenyl)-5-methyl-1,3-oxazol-2-yl]-1-(propan-2-yl)-1H-1,2,3-benzotriazole] | <6.5 | <5 | < 75 | < 75
11 | COc1cnc(-c2nc(-c3ccc4c(c3)nnn4C(C)C)no2)cn1 [Compound 51, 3-(1-isopropyl-1H-benzo[d][1,2,3]triazol-5-yl)-5-(5-methoxypyrazin-2-yl)-1,2,4-oxadiazole] | <6.5 | <5 |  | 
12 | Brc1ccccc1-c1nc(-c2ccc3c(c2)nnn3Cc2ccccc2)no1 [Compound 52, 3-(1-benzyl-1H-benzo[d][1,2,3]triazol-5-yl)-5-(2-bromophenyl)-1,2,4-oxadiazole] | <6.5 | <5 |  | 
13 | CCCn1nnc2cc(-c3nc(-c4cccc(C)c4)no3)ccc21 [Compound 54, 5-[3-(3-methylphenyl)-1,2,4-oxadiazol-5-yl]-1-propyl-1H-1,2,3-benzotriazole] | <6.5 | <5 |  | 
14 | O=C1CCOc2ccc(-c3nc(-c4ccncc4)no3)cc21 [Compound 57, 6-[3-(pyridin-4-yl)-1,2,4-oxadiazol-5-yl]-3,4-dihydro-2H-1-benzopyran-4-one] | <6.5 | <5 |  | 

Continued, values first:

Row | hS1P1 cAMP pEC50 [1] | hS1P1 B-arrestin2 pEC50 [2] | Emax [1] [%] | Emax [2] [%] | SMILES
15 | <6.5 | <5 |  |  | CC(C)n1nnc2cc(-c3ncc(-c4ccc(F)cc4)s3)ccc21 [Compound 37, 5-(4-fluorophenyl)-2-(1-isopropylbenzotriazol-5-yl)thiazole]
16 | >6.5 | >5 |  |  | Brc1ccccc1-c1nc(-c2ccc3c(c2)nnn3C2CCCC2)no1 [Compound 40, 5-(2-bromophenyl)-3-(1-cyclopentyl-1H-benzo[d][1,2,3]triazol-5-yl)-1,2,4-oxadiazole]
17 | <6.5 | <5 | < 75 | < 75 | O=C1CC2(CCCCC2)Oc2ccc(-c3nc(-c4cccnc4)no3)cc21 [Compound 41, 6-[3-(pyridin-3-yl)-1,2,4-oxadiazol-5-yl]-3,4-dihydrospiro[1-benzopyran-2,1′-cyclohexane]-4-one]
18 | >6.5 | >5 |  |  | CC(C)n1nnc2cc(-c3noc(-c4ccccc4Br)n3)ccc21 [Compound 43, 5-(2-bromophenyl)-3-(1-isopropyl-1H-benzo[d][1,2,3]triazol-5-yl)-1,2,4-oxadiazole]
19 | <6.5 | <5 |  |  | Cc1nccnc1-c1nc(-c2ccc3c(c2)nnn3C(C)C)no1 [Compound 44, 3-(1-isopropyl-1H-benzo[d][1,2,3]triazol-5-yl)-5-(3-methylpyrazin-2-yl)-1,2,4-oxadiazole]
20 | >6.5 | >5 |  |  | Cc1ccsc1-c1noc(-c2ccc3c(c2)nnn3C2CCCC2)n1 [Compound 46, 1-cyclopentyl-5-[3-(3-methylthiophen-2-yl)-1,2,4-oxadiazol-5-yl]-1H-1,2,3-benzotriazole]
21 | <6.5 | <5 |  |  | CSc1cccc(-c2nc(-c3ccc4c(c3)nnn4C3CCCC3)no2)c1 [Compound 47, 3-(1-cyclopentyl-1H-benzo[d][1,2,3]triazol-5-yl)-5-(3-(methylthio)phenyl)-1,2,4-oxadiazole]
22 | <6.5 | <5 |  |  | Brc1ccccc1-c1nc(-c2ccc3c(c2)nnn3Cc2ccncc2)no1 [Compound 48, 5-(2-bromophenyl)-3-(1-(pyridin-4-ylmethyl)-1H-benzo[d][1,2,3]triazol-5-yl)-1,2,4-oxadiazole]
23 | <6.5 | <5 |  |  | CC(C)n1nnc2cc(-c3nc(-c4ccc(COc5ccccc5)cc4)no3)ccc21 [Compound 49, 5-{3-[4-(phenoxymethyl)phenyl]-1,2,4-oxadiazol-5-yl}-1-(propan-2-yl)-1H-1,2,3-benzotriazole]
24 | <6.5 | <5 | < 75 | < 75 | CC(C)n1nnc2cc(-c3nc(-c4ccc(OCc5ccccc5)cc4)no3)ccc21 [Compound 53, 5-{3-[4-(benzyloxy)phenyl]-1,2,4-oxadiazol-5-yl}-1-(propan-2-yl)-1H-1,2,3-benzotriazole]
25 | <6.5 | <5 |  |  | CC(C)C(c1ccccc1)c1noc(-c2ccc3c(c2)nnn3C(C)C)n1 (stereo not shown) [Compound 56, 5-[3-(2-methyl-1-phenylpropyl)-1,2,4-oxadiazol-5-yl]-1-(propan-2-yl)-1H-1,2,3-benzotriazole]
26 | <6.5 | <5 | < 75 | < 75 | CC1(C)CCC2(CC1)CC(=O)c1cc(-c3nc(-c4cccnc4)no3)ccc1O2 [Compound 58, 4′,4′-dimethyl-6-[3-(pyridin-3-yl)-1,2,4-oxadiazol-5-yl]-3,4-dihydrospiro[1-benzopyran-2,1′-cyclohexane]-4-one]
27 | >6.5 | >5 | > 75 | > 75 | C=CCNc1ccc(-c2nc(-c3ccc4c(c3)CCC(=O)N4)no2)cc1C#N [Compound 61, 2-(allylamino)-5-(3-(2-oxo-1,2,3,4-tetrahydroquinolin-6-yl)-1,2,4-oxadiazol-5-yl)benzonitrile]
